Measured values reported in ChEMBL document CHEMBL3596163, “Discovery of imidazo[1,5-a]pyridines and -pyrimidines as potent and selective RORc inverse agonists” (Bioorg Med Chem Lett, 2015).
The source made the active and inactive calls. No cut-off for these calls is given here.

How the values were obtained:
[1] = Lipophilicity, log D of the compound at pH 7.4; type: physicochemical; details: buffer
[2] = molecular target: T1, Nuclear receptor ROR-alpha (Homo sapiens, UniProt P35398); assay: Inverse agonist activity at GAL4-fused human RORa expressed in HEK293T cells assessed as suppression of basal transcriptional activity after 20 hrs by dual-glo luciferase reporter gene assay; type: cell-based, HEK-293T
T1 sequence (P35398 whole entry): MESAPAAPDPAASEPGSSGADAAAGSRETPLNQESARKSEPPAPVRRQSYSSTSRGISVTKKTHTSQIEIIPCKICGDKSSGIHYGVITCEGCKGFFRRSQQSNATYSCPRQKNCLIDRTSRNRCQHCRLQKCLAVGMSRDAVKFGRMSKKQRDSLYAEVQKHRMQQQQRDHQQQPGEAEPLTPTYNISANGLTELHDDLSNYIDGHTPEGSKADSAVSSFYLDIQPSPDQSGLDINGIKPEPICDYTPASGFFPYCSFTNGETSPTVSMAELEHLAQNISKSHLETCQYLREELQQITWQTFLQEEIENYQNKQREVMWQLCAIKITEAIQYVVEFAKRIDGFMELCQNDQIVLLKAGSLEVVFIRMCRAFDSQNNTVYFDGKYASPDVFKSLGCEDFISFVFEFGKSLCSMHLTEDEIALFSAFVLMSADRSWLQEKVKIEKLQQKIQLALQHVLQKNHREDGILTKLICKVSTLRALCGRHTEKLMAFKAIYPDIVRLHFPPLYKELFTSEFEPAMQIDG

[3] = molecular target: T2, Bile acid receptor (Homo sapiens, UniProt Q96RI1); assay: Agonist activity at GAL4-fused human FXR expressed in HEK293T cells assessed as activation of basal transcriptional activity after 20 hrs by dual-glo luciferase reporter gene assay; type: cell-based, HEK-293T
T2 sequence (Q96RI1 whole entry): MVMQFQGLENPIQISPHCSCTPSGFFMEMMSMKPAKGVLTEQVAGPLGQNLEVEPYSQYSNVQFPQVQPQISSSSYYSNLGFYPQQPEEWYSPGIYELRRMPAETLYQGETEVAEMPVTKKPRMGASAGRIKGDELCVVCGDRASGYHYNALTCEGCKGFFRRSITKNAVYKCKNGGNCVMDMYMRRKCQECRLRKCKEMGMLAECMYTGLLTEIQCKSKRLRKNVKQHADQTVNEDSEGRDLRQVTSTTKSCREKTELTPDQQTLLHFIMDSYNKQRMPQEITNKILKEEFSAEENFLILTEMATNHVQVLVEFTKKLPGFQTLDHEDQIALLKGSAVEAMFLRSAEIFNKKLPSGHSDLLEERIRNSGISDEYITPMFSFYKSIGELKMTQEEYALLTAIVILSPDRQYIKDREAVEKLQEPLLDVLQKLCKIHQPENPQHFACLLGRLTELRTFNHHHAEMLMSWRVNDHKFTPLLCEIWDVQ

[4] = molecular target: T3, Oxysterols receptor LXR-beta (Homo sapiens, UniProt P55055); assay: Agonist activity at GAL4-fused human LXRbeta expressed in HEK293T cells assessed as activation of basal transcriptional activity after 20 hrs by dual-glo luciferase reporter gene assay; type: cell-based, HEK-293T
T3 sequence (P55055 whole entry): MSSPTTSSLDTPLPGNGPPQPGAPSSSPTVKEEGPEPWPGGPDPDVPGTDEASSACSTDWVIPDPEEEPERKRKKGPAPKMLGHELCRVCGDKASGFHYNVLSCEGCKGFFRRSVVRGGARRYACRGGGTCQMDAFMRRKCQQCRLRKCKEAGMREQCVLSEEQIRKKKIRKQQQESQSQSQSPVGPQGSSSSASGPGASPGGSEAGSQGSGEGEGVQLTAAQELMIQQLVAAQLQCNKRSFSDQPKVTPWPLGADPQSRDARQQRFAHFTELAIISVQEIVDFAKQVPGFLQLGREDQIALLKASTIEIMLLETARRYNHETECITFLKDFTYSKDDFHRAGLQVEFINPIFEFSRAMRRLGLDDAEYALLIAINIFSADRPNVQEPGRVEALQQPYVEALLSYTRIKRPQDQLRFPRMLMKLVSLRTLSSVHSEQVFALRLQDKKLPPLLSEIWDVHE

[5] = molecular target: T4, Oxysterols receptor LXR-alpha (Homo sapiens, UniProt Q13133); assay: Agonist activity at GAL4-fused human LXRalpha expressed in HEK293T cells assessed as activation of basal transcriptional activity after 20 hrs by dual-glo luciferase reporter gene assay; type: cell-based, HEK-293T
T4 sequence (Q13133 whole entry): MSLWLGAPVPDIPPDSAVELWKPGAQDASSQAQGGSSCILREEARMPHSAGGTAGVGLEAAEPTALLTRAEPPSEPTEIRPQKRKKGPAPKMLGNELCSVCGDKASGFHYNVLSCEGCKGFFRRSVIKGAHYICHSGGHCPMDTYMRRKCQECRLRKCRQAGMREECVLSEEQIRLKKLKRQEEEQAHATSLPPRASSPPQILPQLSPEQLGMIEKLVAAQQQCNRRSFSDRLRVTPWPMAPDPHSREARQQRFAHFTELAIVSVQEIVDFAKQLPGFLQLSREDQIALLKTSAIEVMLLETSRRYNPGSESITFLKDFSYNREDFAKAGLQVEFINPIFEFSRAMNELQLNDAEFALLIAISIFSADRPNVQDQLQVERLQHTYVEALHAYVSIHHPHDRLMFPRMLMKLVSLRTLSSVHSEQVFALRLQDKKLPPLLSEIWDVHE

[6] = molecular target: T5, Nuclear receptor subfamily 1 group I member 2 (Homo sapiens, UniProt O75469); assay: Agonist activity at GAL4-fused human PXR expressed in HEK293T cells assessed as activation of basal transcriptional activity after 20 hrs by dual-glo luciferase reporter gene assay; type: cell-based, HEK-293T
T5 sequence (O75469 whole entry): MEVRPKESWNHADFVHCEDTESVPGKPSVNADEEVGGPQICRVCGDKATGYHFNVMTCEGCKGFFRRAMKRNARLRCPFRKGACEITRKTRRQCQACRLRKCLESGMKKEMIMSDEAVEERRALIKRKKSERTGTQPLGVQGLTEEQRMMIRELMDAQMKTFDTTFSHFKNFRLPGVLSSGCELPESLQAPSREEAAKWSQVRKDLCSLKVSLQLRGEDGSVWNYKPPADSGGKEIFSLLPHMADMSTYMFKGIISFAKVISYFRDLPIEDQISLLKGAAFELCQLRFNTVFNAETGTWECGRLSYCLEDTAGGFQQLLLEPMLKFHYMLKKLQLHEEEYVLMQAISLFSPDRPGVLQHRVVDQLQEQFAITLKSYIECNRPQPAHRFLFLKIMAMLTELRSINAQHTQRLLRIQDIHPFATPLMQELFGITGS

[7] = molecular target: T6, Bile acid receptor (Homo sapiens) (UniProt Q96RI1); assay: Antagonist activity at GAL4-fused human FXR expressed in HEK293T cells assessed as inhibition of T0901317-induced basal transcriptional activity up to 10 uM after 20 hrs by dual-glo luciferase reporter gene assay; type: cell-based; details: HEK-293T
T6 sequence (whole entry): T2 sequence (Q96RI1 whole entry)

[8] = molecular target: T5, Nuclear receptor subfamily 1 group I member 2; assay: Antagonist activity at GAL4-fused human PXR expressed in HEK293T cells assessed as inhibition of T0901317-induced basal transcriptional activity up to 10 uM after 20 hrs by dual-glo luciferase reporter gene assay; type: cell-based; details: hek-293t
[9] = test system: PBMC; assay: Antiinflammatory activity in human PBMC assessed as inhibition of IL-17 production after 48 hrs by Sandwich ELISA; type: functional, cell-based
[10] = test system: PBMC; assay: Inhibition of IFNgamma production in human PBMC after 48 hrs by Sandwich ELISA; type: functional, cell-based

SMILES	logD [1]	EC50 [2]	EC50 [3]	EC50 [4]	EC50 [5]	EC50 [6]	inhibition [7]	inhibition (INH) [8]	EC50 [9]	EC50 [10]
O=C(O)c1ccc(-c2nc(C(=O)c3c(Cl)cccc3C3CC3)n3cccnc23)cc1O	1.5	> 10 µM	> 10 µM	> 10 µM	> 10 µM	> 10 µM	inactive	Not Active	0.03 µM	> 10 µM
O=C(O)c1ccc(-c2nc(C(=O)c3c(Cl)cccc3C(F)(F)F)n3ccccc23)cc1O	2.5	> 10 µM	> 10 µM	> 10 µM	> 10 µM	> 10 µM	inactive	Not Active	0.017 µM	> 10 µM
O=C(O)c1ccc(-c2nc(C(=O)c3c(Cl)cccc3C3CC3)n3c2CCCC3)c(F)c1	1.6	> 10 µM	> 10 µM	> 10 µM	> 10 µM	> 10 µM	inactive	Not Active	0.3 µM	> 10 µM
O=C(O)c1ccc(-c2nc(C(=O)c3c(Cl)cccc3C(F)(F)F)n3ccccc23)cc1	1.5	> 10 µM	> 10 µM	> 10 µM	> 10 µM	> 10 µM	inactive	Not Active	0.23 µM	> 10 µM
O=C(O)c1ccc(-c2nc(C(=O)c3c(Cl)cccc3C(F)(F)F)n3c2CCCC3)c(F)c1	1.3	> 10 µM	> 10 µM	> 10 µM	> 10 µM	> 10 µM	inactive	Not Active	0.23 µM	> 10 µM
O=C(O)c1ccc(-c2nc(C(=O)c3c(Cl)cccc3C(F)(F)F)n3ccccc23)c(F)c1	1.8	> 10 µM	> 10 µM	> 10 µM	> 10 µM	> 10 µM	inactive	Not Active	0.12 µM	> 10 µM
